Assay results published in PubChem BioAssay (NCI).
“And” between values parts separate entries of the source, which are not always exact repeats. Identical values can stand only once.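 Interpolation was linear, between the two tested concentrations surrounding the appropriate level; five concentrations were tested over 48 hours in 96-well plates. GI50 marks 50% less growth. TGI: total growth inhibition.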

What was measured:
Test in all cases: NCI-60 cell line screen, 48 h
UACC-257 melanoma = system: UACC-257 melanoma
SNB-19 CNS = system: SNB-19 CNS
HCT-116 colon = system: HCT-116 colon
OVCAR-3 ovarian = system: OVCAR-3 ovarian
HT29 colon = system: HT29 colon
SR leukemia = system: SR leukemia
HCC-2998 colon = system: HCC-2998 colon
SW-620 colon = system: SW-620 colon
SK-MEL-2 melanoma = system: SK-MEL-2 melanoma
UACC-62 melanoma = system: UACC-62 melanoma
CCRF-CEM leukemia = system: CCRF-CEM leukemia
U251 CNS = system: U251 CNS
NCI-H226 lung = system: NCI-H226 lung
CAKI-1 renal = system: CAKI-1 renal
MCF7 breast = system: MCF7 breast
RXF 393 renal = system: RXF 393 renal
SN12C renal = system: SN12C renal
NCI/ADR-RES ovarian = system: NCI/ADR-RES ovarian
EKVX NSCLC = system: EKVX NSCLC
MDA-MB-435 = system: MDA-MB-435
KM12 colon = system: KM12 colon
ACHN renal = system: ACHN renal
SF-268 CNS = system: SF-268 CNS
MOLT-4 leukemia = system: MOLT-4 leukemia
TK-10 renal = system: TK-10 renal
HS 578T breast = system: HS 578T breast
T-47D breast = system: T-47D breast
M14 melanoma = system: M14 melanoma
OVCAR-5 ovarian = system: OVCAR-5 ovarian
NCI-H23 lung = system: NCI-H23 lung
HL-60(TB) leukemia = system: HL-60(TB) leukemia
DU-145 prostate = system: DU-145 prostate
UO-31 renal = system: UO-31 renal
COLO 205 colon = system: COLO 205 colon
A549 NSCLC = system: A549 NSCLC
SF-539 CNS = system: SF-539 CNS
SK-MEL-5 melanoma = system: SK-MEL-5 melanoma
HOP-92 NSCLC = system: HOP-92 NSCLC
MALME-3M melanoma = system: MALME-3M melanoma
SF-295 CNS = system: SF-295 CNS

`O=c1cc(-c2cccc(OC(F)(F)F)c2)[nH]c2ccc(N3CCCC3)cc12` was tested, and the TGI (UACC-257 melanoma) was > 100 µM, the TGI (SNB-19 CNS) was 11.9 µM and the TGI (HCT-116 colon) was 177 nM and 1760 nM. The TGI (OVCAR-3 ovarian) was 0.234 nM, the TGI (HT29 colon) was 1.66 nM and the TGI (SR leukemia) was < 0.1 nM. The TGI (HCC-2998 colon) was 11 nM, the TGI (SW-620 colon) was > 100 µM and the TGI (SK-MEL-2 melanoma) was 0.848 nM. For the same molecule, the TGI (UACC-62 melanoma) was 96.8 µM, the TGI (CCRF-CEM leukemia) was > 100 µM and the TGI (U251 CNS) was 16.5 µM. The TGI (NCI-H226 lung) was 0.657 nM, the TGI (CAKI-1 renal) was > 100 µM and the GI50 (MCF7 breast) was 38.5 nM. For the same molecule, the TGI (MCF7 breast) was > 100 µM, the TGI (RXF 393 renal) was 738 nM and the TGI (SN12C renal) was 55.9 µM. The TGI (NCI/ADR-RES ovarian) was 0.673 nM, the GI50 (EKVX NSCLC) was 49.3 nM and the TGI (EKVX NSCLC) was > 100 µM. For the same molecule, the TGI (MDA-MB-435) was < 0.1 nM, the TGI (KM12 colon) was 2.49 nM and the TGI (ACHN renal) was 51.3 µM. For the same molecule, the TGI (SF-268 CNS) was 19.1 µM, the TGI (MOLT-4 leukemia) was 1.57 nM and the GI50 (TK-10 renal) was 43.1 nM. The TGI (TK-10 renal) was 6.79 µM, the TGI (HS 578T breast) was 86.2 µM and the TGI (T-47D breast) was > 100 µM. For the same molecule, the TGI (M14 melanoma) was > 100 µM, the TGI (OVCAR-5 ovarian) was > 100 µM and the TGI (NCI-H23 lung) was 50.2 nM. For the same molecule, the TGI (HL-60(TB) leukemia) was < 0.1 nM, the TGI (DU-145 prostate) was 177 nM and the TGI (UO-31 renal) was > 100 µM. The TGI (COLO 205 colon) was 20.4 nM and 31.9 nM, the TGI (A549 NSCLC) was 44.5 µM and the TGI (SF-539 CNS) was 0.621 nM. For the same molecule, the TGI (SK-MEL-5 melanoma) was 10.5 nM, the TGI (HOP-92 NSCLC) was > 100 µM and the TGI (MALME-3M melanoma) was > 100 µM. It also gave a TGI (SF-295 CNS) of 0.48 nM.
